Row | melting point [°C] | SMILES
1 | 197 | CC(C)(Nc1cccc(C(=N)N)c1)C(=O)Nc1ccc(-c2ccccc2S(N)(=O)=O)cc1
2 | 198 to 201 | O=C1c2cccc(NC3CCCC3)c2C(=O)c2cccc(NC3CCCC3)c21
3 | 151 to 153 | O=c1nc(-c2cccc(CN3CCC(O)(c4ccc(Cl)cc4)CC3)n2)sc2ccccc12
4 | 99.5 to 101 | CCc1noc(C)c1C(=O)Nc1cccc(F)c1
5 | 140 to 142 | NS(=O)(=O)c1ncccc1C(=O)OC1COC1
6 | 134 to 135 | CN(C(=O)c1ccc2nonc2c1)C1CCCOC1 (centres undefined)
7 | 73 to 75 | CCOC(=O)CNS(=O)(=O)C(F)(F)F
8 | 120 to 124 | CCn1ncc(NCC(O)CO)c(Cl)c1=O (centres undefined)
9 | 173 to 181 | COc1ccc(C=C2OC(=O)c3ccccc32)cc1[N+](=O)[O-]
10 | 136 to 137 | CCC1Cc2c(C)c(OCC(=O)O)c(C)c(C)c2C1=O (centres undefined)
11 | 114 to 116 | COc1ccc(NN=C(Cl)C(C)=O)cc1
12 | 264 to 266 | Cc1cn(-c2cc(NC(=O)c3cccc(Nc4nccc(-c5cccnc5)n4)c3)cc(C(F)(F)F)c2)cn1
13 | 218 to 219 | COc1ccccc1NC(=S)C1CCc2nc[nH]c2C1 (centres undefined)
14 | 162 to 163 | CC1=NN(CCCn2ccnc2)Cc2cc3ccccn3c21
15 | 155 to 158 | O=C(Nc1ccc([N+](=O)[O-])cc1)N1CCN(c2ncnc3ccccc23)CC1
16 | 93 to 94 | CCOC(=O)c1onc(OCC)c1CN1C(=O)c2ccccc2C1=O
17 | 119 to 120 | CCCCC(CC)Cn1c2cc(CO)ccc2c2ccc(CO)cc21 (centres undefined)
18 | 114 to 115 | CCN(CC)c1ncnc2c1ncn2C1CC(F)C(CO)O1 (centres undefined)
19 | 54 to 55 | CCCCCCCCCCCN(O)C(=O)N(C)C
20 | 83 to 85 | COc1ccc(C2=CC(=O)CCC2)cc1
21 | 156 to 157 | CC(C)(C)OC(=O)N1CC[C@H](O)[C@H]1C(=O)O
22 | 113 to 114 | O=C1N[C@H](Cc2cccc(OCC(F)(F)C(F)F)c2)[C@H](c2ccc(F)cc2)O1 (racemic)
23 | 248 to 254 | O=c1c2cc3ccccc3cc2nc(CSc2ncnc3[nH]cnc23)n1-c1ccccc1Cl
24 | 169 to 171 | CC(=O)N(CCCOc1ccc(C(=O)O)cc1)c1ccc(Cl)cc1

Row | melting point [°C] | SMILES
25 | 230 | CCCc1nc(C=Cc2ccccc2)c(C(=O)O)n1Cc1cc2c(cc1Cl)OCO2
26 | 165 to 167 | O=C1CC[C@H](CC(c2ccc(S(=O)(=O)C3CC3)cc2)c2ccc(-c3nccs3)[nH]2)C1 (some centres undefined)
27 | 171 to 177 | CC1c2cc(C(C)(C)C)cc(C(C)(C)C)c2O[Si](C)(C)Oc2c1cc(C(C)(C)C)cc2C(C)(C)C
28 | 196 to 198 | COC(=O)C(=CNc1ncnc2ccc(NC(=O)CC(C)(C)C)cc12)C(=O)OC
29 | 154 | COc1ccccc1C(=O)c1cccc2c1ccn2S(=O)(=O)c1ccc(C)cc1
30 | 98 to 100 | CC(C)(C)c1ccc2c(c1)ncn2-c1cccc(Br)n1
31 | 118 to 120 | CCCCn1cc(C(=O)OCC)c(NC(=O)Nc2ccccc2)n1
32 | 118 to 120 | O=C(CN1CCC(Cc2ccc(F)cc2)CC1)Nc1cccc([N+](=O)[O-])c1
33 | > 250 | O=c1oc2c(O)c(O)ccc2c2cc(O)c(O)cc12
34 | 206 to 207 | CC(Cl)(Cl)C(NC(=O)c1ccc(Cl)cc1)NC(=NC#N)Nc1ccc(F)nc1 (centres undefined)
35 | 254 to 256 | CC(=O)Oc1ccc2cc(-c3ccc(C(=O)O)cc3)ccc2c1
36 | 117 to 120 | COC(=O)c1ccc(CC(C=O)c2cc(C(=O)OC)ccc2[N+](=O)[O-])c(OC)c1 (centres undefined)
37 | 74 to 75 | CCCCCCCCCCCCCCCCCCCCCCOS(=O)(=O)c1ccc(Cl)cc1
38 | 203 to 205 | CNC(=O)NC1=NC(=CCC(=O)Nc2ccc(Cl)cc2)CS1
39 | 204 to 206 | N#Cc1c2n(c(=O)n1-c1cc(O)c(Cl)cc1F)CCCC2
40 | 67 to 68 | CN(C)C(=S)SC(C[N+](=O)[O-])c1ccco1 (centres undefined)
41 | 270 to 272 | Cc1cc(=O)[nH]nc1-c1ccc2c(c1)CCC1(CCN(C3CCC3)CC1)O2
42 | 60 | CCOC(=O)C1COc2cc(C(C)=O)ccc2O1 (centres undefined)
43 | 182 to 184 | C=C(c1ccc(-c2cc[nH]n2)cc1)C(O)(Cn1cncn1)c1ccc(F)cc1F (centres undefined)
44 | 87 to 89 | O=C(NCC1Cc2ccccc2C1)OCc1ccccc1
45 | 104 to 105 | COc1ccc(-c2ccc(C3=NOC(CNC(C)=O)C3)cc2)ccc1=O (centres undefined)
46 | 150 to 160 | CCC12CCC3c4ccc(OC)cc4C(C)CC3C1CCC2O (centres undefined)
47 | 159 to 161 | CC(C)(C)OC(=O)NC(COc1noc2ccc(Cl)cc12)Cc1cc(O)no1 (centres undefined)
48 | 212 to 215 | CCOc1ccc(S(=O)(=O)N2CCN(C)CC2)cc1-c1nc2cccnc2c(=O)[nH]1

Row | melting point [°C] | SMILES
49 | 150 to 152 | CCn1ncnc1COc1nc2c(cnn2-c2ccccc2)cc1C(C)(C)C
50 | 132 to 134 | O=C1c2ccccc2C(O)N1CCCSc1ccncc1 (centres undefined)
51 | 185 to 187 | C#Cc1ccc2c(c1)c(=O)c(C(=O)OCC)cn2CC
52 | 157 to 158 | CC(C)(C)c1nn(-c2c(F)cc(Cl)c3nc(Cl)sc23)c(=O)o1
53 | 93 to 94 | COC(=O)c1cccc2c(SC(F)(F)F)c(OC)ccc12
54 | 169 to 171 | Oc1cnccc1CCCOc1cccnc1Sc1cccc(Br)c1
55 | 49 to 51 | NCc1cc(CN)cc(CN)c1
56 | 149 to 150 | OCCOc1ccc(C2=NCCO2)cc1
57 | 144 to 146 | CC(=O)C(=Cc1cccc([N+](=O)[O-])c1)P1(=O)OCCCO1
58 | > 280 | CCOC(=O)Cn1c(=O)[nH]c(=O)c2cc(Cl)c(Cl)cc21
59 | 278 to 280 | O=c1c[n+]([O-])c2cc(Cl)c(Cl)cc2[nH]1
60 | 195 to 200 | O=C1NC(=O)C(c2ccccc2Cl)C1SC1=NCCS1 (centres undefined)
61 | 213 to 214 | CCOC(=O)c1cn(C2CC2)c2nc(N3C[C@@H](CNC(C)=O)[C@@H](Cl)C3)c(F)cc2c1=O (relative stereo)
62 | 121 to 123 | COc1c2c(c(OC)c(OC)c1OC)CCC(CCn1cnc3ccccc31)CC2
63 | 168 to 173 | COCc1nc2c3c(ccn2c1C)C(=O)[C@H](O)[C@@H](c1ccccc1)N3
64 | 140 to 142 | COC(=O)c1ccc2c(c1)OCCC2NC(=O)OCc1ccccc1 (centres undefined)
65 | 62 to 65 | CCCCCCCCCCC(O)Cn1ccnc1-c1ccccn1 (centres undefined)
66 | 59 to 60 | CCCCCCCCCCCCCCc1ccc(CC)c(O)c1
67 | 127 to 128 | O=C(O)c1c(OCc2ccccc2)ccc2ccccc12
68 | 61 to 62 | O=Cc1cc(Br)c(Cl)s1
69 | 235 to 238 | Cc1cc(C)cc(CC(C)(C)NCC(O)c2cc(O)cc3c2OCC(=O)N3)c1 (centres undefined)
70 | 204 to 205 | CO/C(=C\C=C\c1cc2ccccc2[nH]1)C(=O)NCc1ccccc1
71 | 56 to 57 | CC(C)OC(=O)COc1ccc(CCNS(=O)(=O)c2ccccc2)cc1
72 | 236 to 240 | CNC(=O)N1CC(Oc2ccccc2C(N)=O)C1

Row | melting point [°C] | SMILES
73 | 155 to 168 | CC(C)Cc1ccc(C(C)C(=O)NCCCNC2=NCCN2)cc1 (centres undefined)
74 | 129 to 130 | Cc1cc(C#N)cc(C(=O)c2nc(OCc3ccccc3)nc(OCc3ccccc3)c2C(C)C)c1
75 | 179 to 181 | c1cnc2ccc(Cn3nnc4ccc(-c5ccc6c(c5)OCO6)nc43)cc2c1
76 | 111 to 120 | COc1ccc(CCN2C(=O)OC3(CCN(Cc4ccccc4)CC3)C2(C)O)cc1OC (centres undefined)
77 | 139 to 140 | O=C(C=Cc1ccc(C(F)(F)F)cc1)N1CCCCC1CO (centres undefined)
78 | 172 to 174 | Clc1nn2c(-c3ccccc3)nnc2c2ccccc12
79 | 53 to 55 | O=C(CCCC1CCN(Cc2ccccc2)CC1)c1ccc(F)cc1
80 | 160 | O=[N+]([O-])c1nccn1C1OC(CO)C(O)C1O (centres undefined)
81 | 65 to 66 | CC(=O)Nc1ncc(C)cc1Br
82 | 141 to 142 | Cc1nc(-c2cnc(Cc3ccccc3)o2)sc1C(=O)NCc1ccccc1
83 | 144 to 145 | OCc1cn(-c2cc(F)cc(C(F)(F)F)c2)cn1
84 | 165 to 167 | O=C(O)C(CC1CCCC1)c1ccc(S(=O)(=O)C2CCCC2)cc1 (centres undefined)
85 | 255 to 256 | COc1cc(Br)c(-n2c(=O)[nH]c3c(-c4ccccc4C(F)(F)F)nc(C)nc32)c(OC)c1
86 | 171 to 173 | O=C(O)c1cc(S(=O)(=O)Oc2ccc(-c3ccc(-c4c(Cc5ccccc5)oc5ccccc45)cc3)cc2)ccc1O
87 | 96 to 98 | O=C(NCCc1ccc(O)cc1)OCc1ccccc1
88 | 72 to 74 | CCCCCCCCCCCCCCCCSCC(O)CO (centres undefined)
89 | 123 to 124 | CCN(CC)CCCNc1nc2ccccc2n(-c2ccc(Cl)cc2)c1=O
90 | 200 to 203 | O=C(O)C12CCCCC1CSc1ccccc12 (centres undefined)
91 | 123 to 124 | CSc1c[nH]c2cccc([N+](=O)[O-])c12
92 | 220 to 222 | O=C(O)c1cn(Cc2cnsn2)c2c(F)c(F)c(F)cc2c1=O
93 | 206 to 208 | O=C(NC(=O)c1c(F)cccc1F)Nc1ccc2c(c1)SC(c1ccc(Cl)cc1Cl)O2 (centres undefined)
94 | 129 to 132 | O=S1(=O)NCCc2ccc(Oc3ccccc3)cc21
95 | 193 | COc1cc2nc3ccccc3sc-2c(OC)c1=O
96 | 170 to 175 | CCOC(=O)C(CBr)=C1C(=N)CCCC1=O

Row | SMILES | melting point [°C]
97 | CCC(C)OC(=O)CNC(=O)[C@@H](Cc1ccccc1)CN1CC[C@@](C)(c2cccc(O)c2)[C@@H](C)C1 (some centres undefined) | 94
98 | O=C(CCC1CCCCC1)NC1N=C(c2ccccc2)c2ccccc2NC1=S (centres undefined) | 113 to 119
99 | CCCCCCCCCCc1cc2c(s1)-n1c(C)nnc1CN=C2c1ccccc1OC | 90 to 92
100 | CC(=O)Nc1ccc2c(c1)CC(CN1CCC(c3c[nH]c4cc(Cl)ccc34)CC1)C2 (centres undefined) | 151 to 152
101 | CCCN(CCC)C1CCC2=C(CC(OC)=CC2)C1 (centres undefined) | 47 to 51
102 | CC1C(=O)NC(C)(C)N1C(=O)CNC(=O)CN1CC(O)CC1=O (centres undefined) | 218 to 220
103 | Cc1nn(C)c(/C(OC(=O)C(C)(C)C)=C(\C#N)c2ccc(C(C)(C)C)cc2)c1C | 110
104 | Cc1ccnc2c1N=C(C#N)c1cccnc1N2C1CC1 | 192 to 193

— a melting point compilation (Tetko et al.; mined from patent text by program, amines drawn as free bases though some values may be those of a salt)
